Assay results: US20050148495A1, “Methods and materials including for treating acne” (priority 2003, published 2005)
In brackets after ≈: the same amount, converted by molar mass. Read-outs that look alike come from different tables or passages of the source. Non-standard residues stand in square brackets, D forms with d. Residues, ends and D or L forms follow the SMILES beside them. d1Nal = N[C@H](Cc1cccc2ccccc12)C(=O)O

Legend:
[1] = test system: CD [Crl:CD (SD) IGS BR] rats; assay: Rat acute oral toxicity test; format: in vivo
Description: XMP.629 was evaluated for acute toxicity following a single dose by oral gavage. The study consisted of three treatment groups of five male and five female CD [CrI:CD (SD) IGS BR] rats which received XMP.629 as a gel at concentrations of 0.1, 0.5, and 1.0% of XMP.629 respectively at a volume of 10 mL/kg. An additional group of five rats per sex served as the control and received control gel at the same volume. All rats were observed twice daily for morbidity, mortality, injury, and availability of food and water. Body weights were measured pretest and at different intervals during the study for all rats; observations for clinical signs were conducted pretest and at approximately 2 and 4 hours following the dose; and daily clinical observations were conducted daily until Day 14. At study termination, gross necropsies were conducted and macroscopic observations were recorded for all animals.

[2] = 0.1, 0.5, or 1% gel on 15% BSA; limit of quantification 1 ng/mL
Description: XMP.629 acetate gel (0.1, 0.5, or 1% XMP.629 acetate per gram gel) was applied to the skin of mini-pigs. The dose of gel in each group was calculated as that amount which would cover 15% of the body surface area (BSA) at a rate of 2 mg of gel per cm2 of BSA. The application area was washed 24 hours following XMP.629 acetate gel application. Blood samples were collected at selected times up to 168 hours after dosing, plasma was extracted, and assayed for XMP.629 using an LC/MS/MS assay (limit of quantification=1 ng/mL).

Streptococcus sobrinus = Streptococcus sobrinus 27607
[3] = test system: eye of New Zealand White rabbits; assay: Rabbit primary eye irritation test (Draize); format: in vivo
Description: XMP.629 was evaluated in a rabbit primary eye irritation test for potential ocular irritant and/or corrosive effects when topically applied to the eye of three New Zealand White rabbits.
All animals received 0.1 mL of a 2% solution XMP.629 in 10 mM sodium acetate instilled into the right conjunctival sac and left in place for 24 hours. The control eye was untreated. The treated eye was washed out with 100 mL of lukewarm water for one to two minutes at approximately 24 hours post-dose. The treated and control eyes were examined at approximately 1, 24, 48, and 72 hours post-dose and on days 5, 8, and 15 for ocular irritation using the standard Draize scoring system (Draize et al., 1944, supra). Sodium fluorescein and ultraviolet light was used to examine for possible corneal injury.

protease = assay: Resistance to protease degradation
Description: (§1) In additional studies, a variety of formulations of XMP.629 were tested for stability under various temperatures, such as 25° C., 40° C., and 50° C., and at various time points, such as 0.5, 1, and 2 months.
E. coli 07:K1 = assay: Acute peritonitis model (survival); format: in vivo, mice; conditions: 10 mg/kg intraperitoneally; 1.4×10^7 CFU E. coli 07:K1; seven days
Description: In additional studies in an acute peritonitis model, mice were challenged intraperitoneally with 1.4×10^7 CFU E. coli 07:K1 and treated intraperitoneally with XMP.629 at 1, 3, or 10 mg/kg or saline. Mice were observed twice daily and mortality was recorded for seven days. Statistical comparisons between the treatment groups and saline were performed using a Chi Square test. […] At 10 mg/kg, 87% protection was observed. In additional studies, XMP.629 was safely administered at a dose of 20 mg/kg intravenously.

physchem = conditions: aqueous solution
Description: as §1
The solubility of XMP.629 acetate in various solvents was also evaluated.
Solubility studies were conducted using a variety of solvent systems and/or skin penetration enhancers.

P. acnes (ATCC 6919) = assay: Post-antibiotic effect (PAE) study; format: cell-based, Propionibacterium acnes
Description: Post-antibiotic effect (PAE) studies with XMP.629 were conducted according to the procedure described by Craig, W. and S. Gudmundsson, “Postantibiotic Effect,” p. 296, In: Lorian, V. (ed.) Antibiotics in Laboratory Medicine, 4th ed. The post antibiotic effect measures the duration that an antibiotic affects target organisms after contact with the bacteria. In this study, an initial concentration of 5×10^6 CFU/mL P. acnes (ATCC 6919) and 1 μg/mL were incubated for 15, 30, or 60 minutes and then diluted 100-fold in BHI. The treated organisms and matched untreated controls were incubated for […]. Samples were taken and counted at hourly intervals. Recovery was determined by plate counts over time.
The postantibiotic value is the difference in time between the controls and treated cultures to increase 1 log10. Because of the long generation time (slow growth) of the organism, the recovery time was unusually long, >12 hours. This may have influenced the results as typical assays are completed within 5-6 hours.

[4] = 72 hours following dosing
P. acnes = conditions: each strain: UPC686, ATCC 6919 intermediate-erythromycin, UP2022
[5] = test system: intact and abraded skin of New Zealand White rabbits; assay: Rabbit primary skin irritation test (Draize); format: in vivo; conditions: 4 hour exposure
Description: XMP.629 was evaluated for any potential dermal irritant effects in the rabbit primary skin irritation test for this dermal irritation study, XMP.629 was tested on intact and abraded skin in three New Zealand White rabbits. All animals received 0.5 mL of XMP.629 on each intact and abraded dorsal skin application site. This was accomplished by placing a gauze patch directly on the skin of each application site and saturating the patch with 0.5 mL of the XMP.629 solution. The application sites were then wrapped with gauze bandaging and non-irritating semi-occlusive tape. Elizabethan collars were then applied for the 4 hour exposure period. At the end of the 4 hour exposure period, the collars and wrappings were removed and any residual XMP.629 removed. The test sites were evaluated using the standard Draize scoring system (Draize et al., 1944, J. Pharmacol, Exp. Ther. 82: 377-390) for erythema and edema within 30 to 60 minutes and 24, 48, and 72 hours following patch removal.

CC(C)C[C@@H](NC(=O)[C@H](N)CCCCN)C(=O)N[C@H](Cc1ccccc1)C(=O)N[C@H](CCCNC(=N)N)C(=O)N[C@H](Cc1cccc2ccccc12)C(=O)N[C@H](CCC(N)=O)C(=O)N[C@H](C)C(=O)N[C@H](CCCCN)C(=O)N[C@H](Cc1cccc2ccccc12)C(N)=O [XMP.629, NH2-lys-leu-phe-arg-(3-(1-naphthyl)-ala)-gln-ala-lys-(3-(1-naphthyl)-ala)-CONH2] (H-[dK][dL][dF][dR][d1Nal][dQ][dA][dK][d1Nal]-NH2)
Minimum Inhibitory Concentrations (Pseudomonas aeruginosa; Pseudomonas aeruginosa 9027): 8.00 µg/mL
Minimum Inhibitory Concentrations (Pseudomonas aeruginosa; Pseudomonas aeruginosa 19660): 8.00 µg/mL
Minimum Inhibitory Concentrations (Pseudomonas aeruginosa; Pseudomonas aeruginosa 27853): 4.00 µg/mL
Minimum Inhibitory Concentrations (Pseudomonas aeruginosa; Pseudomonas aeruginosa XS-65 (MDR)): 8.00 µg/mL
clinical observation ([1]; 1.0% XMP.629, four hours after administration, four males and one female, resolved by Day 2): Decreased activity
clinical signs ([1]; concentrations of 0.1 or 0.5% XMP.629): No clinical signs of systemic toxicity
minimum lethal dose ([1]; single oral gavage of gel, 10 mL/kg (10 mg/mL)): > 1 % XMP.629
plasma concentrations after topical administration [2]: no measurable plasma concentrations
Minimum Inhibitory Concentrations (Streptococcus sobrinus): 2.00 µg/mL
ocular irritation, overall ([3]; 2% XMP.629 in 10 mM sodium acetate solution): mildly irritating
corneal opacity ([3]; 2% solution in 10 mM sodium acetate, any time point): no effects on corneal opacity
iris, average scores ([3]; 2% solution, 48 hours post-instillation): less than 1
protease degradation (protease): substantially resistant to protease degradation
protection (survival) (E. coli 07:K1): 87%
solubility (physchem): ≥ 20 mg/mL
PAE value (P. acnes (ATCC 6919); 1 μg/mL, contact 30 or 60 minutes, accurate value could not be assigned): ≥ 12 h
recovery of affected cells (P. acnes (ATCC 6919); exposure to 0.5 to 2.0 MBCs for 15 minutes): did not recover, even after 24 hours of incubation
duration of continuing inhibitory, but not lethal, effect after contact (P. acnes (ATCC 6919); residence time greater than 15 minutes): more than 5 hours
radioactivity remained in the body (carcass) [4]: 79.7%
MBC (P. acnes): 1 µg/mL (≈ 0.000779 mM)
Minimum Inhibitory Concentrations (Streptococcus pneumoniae; Streptococcus pneumoniae 6303): 8.00 µg/mL
Minimum Inhibitory Concentrations (Streptococcus pneumoniae; Streptococcus pneumoniae 10031): 8.00 µg/mL
Minimum Inhibitory Concentrations (Streptococcus pneumoniae; Streptococcus pneumoniae 35088): 2.00 µg/mL
dermal irritation ([5]; abraded skin): only mildly irritating
dermal irritation ([5]; intact skin): not irritating
